Active and inactive are the calls of the source. The calls are words filed in the database; no cut-off is given here.
Experiments:
LNCaP = assay: Antiproliferative activity against human LNCaP cells with high PSMA expression assessed as effect on cell viability incubated for 72 hrs by MTT assay; format: functional, cell-based
CWR22R [1] = assay: Antiproliferative activity against human 22Rv1 cells with high PSMA expression assessed as effect on cell viability incubated for 72 hrs by MTT assay; format: functional, cell-based; details: 22Rv1, 72 h
PC-3 = assay: Antiproliferative activity against PSMA negative human PC-3 cells assessed as effect on cell viability incubated for 72 hrs by MTT assay; format: functional
[2] = Antiproliferative activity against PSMA negative human RWPE-1 cells assessed as effect on cell viability incubated for 72 hrs by MTT assay; format: toxicity, cell-based; details: RWPE-1 cells (PSMA negative)
[3] = molecular target: Poly [ADP-ribose] polymerase 1 (Homo sapiens, UniProt P09874); assay: Inhibition of PARP1 (unknown origin) by biotinylated NAD+-based luminescence assay
Poly [ADP-ribose] polymerase 1, sequence (P09874 whole entry): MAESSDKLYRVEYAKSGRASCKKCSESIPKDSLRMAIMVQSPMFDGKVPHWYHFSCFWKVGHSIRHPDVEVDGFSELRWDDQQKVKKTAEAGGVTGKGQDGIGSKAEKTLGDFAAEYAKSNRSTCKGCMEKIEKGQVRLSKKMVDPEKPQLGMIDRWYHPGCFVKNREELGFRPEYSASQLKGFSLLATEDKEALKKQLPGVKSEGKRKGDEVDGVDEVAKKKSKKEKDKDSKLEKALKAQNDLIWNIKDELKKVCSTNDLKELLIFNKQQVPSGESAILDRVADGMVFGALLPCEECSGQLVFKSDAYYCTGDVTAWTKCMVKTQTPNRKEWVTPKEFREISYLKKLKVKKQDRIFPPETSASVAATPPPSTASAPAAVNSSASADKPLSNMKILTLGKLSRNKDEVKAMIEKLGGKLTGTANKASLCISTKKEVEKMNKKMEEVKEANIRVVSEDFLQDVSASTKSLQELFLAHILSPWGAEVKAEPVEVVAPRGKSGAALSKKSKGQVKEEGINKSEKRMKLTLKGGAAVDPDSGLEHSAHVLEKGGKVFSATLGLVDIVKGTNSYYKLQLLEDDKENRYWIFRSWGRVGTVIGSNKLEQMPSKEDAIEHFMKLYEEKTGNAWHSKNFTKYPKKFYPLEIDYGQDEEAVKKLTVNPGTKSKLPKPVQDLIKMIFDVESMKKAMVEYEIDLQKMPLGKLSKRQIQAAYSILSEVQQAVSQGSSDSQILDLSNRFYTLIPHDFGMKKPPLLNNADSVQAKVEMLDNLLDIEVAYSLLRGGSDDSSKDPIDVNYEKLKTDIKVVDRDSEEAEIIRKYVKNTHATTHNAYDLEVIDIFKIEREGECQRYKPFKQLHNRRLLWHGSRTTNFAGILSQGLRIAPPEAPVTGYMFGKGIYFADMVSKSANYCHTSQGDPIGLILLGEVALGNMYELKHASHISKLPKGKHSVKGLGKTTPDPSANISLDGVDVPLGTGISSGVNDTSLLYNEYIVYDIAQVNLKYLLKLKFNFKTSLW

CWR22R [4] = assay: Induction of DNA damage in human 22Rv1 cells assessed as increase in number of gamma-H2AX foci incubated for 12 hrs by DAPI staining based immunofluorescence analysis; format: functional, cell-based; details: dose 50-200 µM
CWR22R [5] = assay: Induction of apoptosis in human 22Rv1 cells assessed as increase in cleaved caspase-3 expression at 100 uM incubated for 72 hrs by Western blot analysis; format: functional, cell-based
CWR22R [6] = assay: Antiproliferative activity against human 22Rv1 cells assessed as reduction in cell viability at 125 uM in presence of DUPA; format: functional, cell-based
[7] = Drug uptake in PSMA positive human 22Rv1 cells at 10 uM measured after 1 to 6 hrs by LC-MS/MS analysis; format: ADME, cell-based; details: cwr22r, time 1-6 hrs
[8] = Drug uptake in PSMA positive human 22Rv1 cells at 10 uM measured after 1 to 6 hrs in presence of PSMA ligand DUPA by LC-MS/MS analysis; format: ADME, cell-based; details: cwr22r, time 1-6 hrs
[9] = Half-life in Sprague-Dawley rat at 100 mg/kg, po measured after 24 hrs by UPLC-MS/MS analysis; format: ADME, organism-based; details: in vivo
[10] = Tmax in Sprague-Dawley rat at 100 mg/kg, po measured after 24 hrs by UPLC-MS/MS analysis; format: ADME, organism-based; details: in vivo
[11] = Cmax in Sprague-Dawley rat at 100 mg/kg, po measured after 24 hrs by UPLC-MS/MS analysis; format: ADME, organism-based; details: in vivo
[12] = AUC (0 to t) in Sprague-Dawley rat at 100 mg/kg, po measured after 24 hrs by UPLC-MS/MS analysis; format: ADME, organism-based; details: in vivo
[13] = AUC (0 to infinity) in Sprague-Dawley rat at 100 mg/kg, po measured after 24 hrs by UPLC-MS/MS analysis; format: ADME, organism-based; details: in vivo
[14] = Oral bioavailability in Sprague-Dawley rat at 100 mg/kg measured after 24 hrs by UPLC-MS/MS analysis; format: ADME, organism-based; details: in vivo
[15] = Half-life in Sprague-Dawley rat at 5 mg/kg, iv measured after 24 hrs by UPLC-MS/MS analysis; format: ADME, organism-based; details: in vivo
[16] = C0 in Sprague-Dawley rat at 5 mg/kg, iv measured after 24 hrs by UPLC-MS/MS analysis; format: ADME, organism-based; details: in vivo
[17] = Volume of distribution in Sprague-Dawley rat at 5 mg/kg, iv measured after 24 hrs by UPLC-MS/MS analysis; format: ADME, organism-based; details: in vivo
[18] = Clearance in Sprague-Dawley rat at 5 mg/kg, iv measured after 24 hrs by UPLC-MS/MS analysis; format: ADME, organism-based; details: in vivo
[19] = AUC (0 to t) in Sprague-Dawley rat at 5 mg/kg, iv measured after 24 hrs by UPLC-MS/MS analysis; format: ADME, organism-based; details: in vivo
[20] = AUC (0 to infinity) in Sprague-Dawley rat at 5 mg/kg, iv measured after 24 hrs by UPLC-MS/MS analysis; format: ADME, organism-based; details: in vivo
[21] = Subacute toxicity in male ICR mouse assessed as decrease in body weight at 195 to 390 mg/kg, po administered via gavage for 30 days; format: organism-based; details: in vivo, 720 h, dose 195-390 mg/kg, time 30 day
[22] = Subacute toxicity in male ICR mouse assessed as decrease in red blood cells at 195 to 390 mg/kg, po administered via gavage for 30 days by blood routine test; format: organism-based; details: in vivo, 720 h, dose 195-390 mg/kg, time 30 day
[23] = Subacute toxicity in male ICR mouse assessed as decrease in hemoglobin at 195 to 390 mg/kg, po administered via gavage for 30 days by blood routine test; format: organism-based; details: in vivo, 720 h, dose 195-390 mg/kg, time 30 day
[24] = Subacute toxicity in male ICR mouse assessed as decrease in hematocrit at 195 to 390 mg/kg, po administered via gavage for 30 days by blood routine test; format: organism-based; details: in vivo, 720 h, dose 195-390 mg/kg, time 30 day
[25] = Subacute toxicity in male ICR mouse assessed as decrease in WBC at 195 to 390 mg/kg, po administered via gavage for 30 days by blood routine test; format: organism-based; details: in vivo, 720 h, dose 195-390 mg/kg, time 30 day
[26] = Subacute toxicity in male ICR mouse assessed as decrease in neutrophil at 195 to 390 mg/kg, po administered via gavage for 30 days by blood routine test; format: organism-based; details: in vivo, 720 h, dose 195-390 mg/kg, time 30 day
[27] = Subacute toxicity in male ICR mouse assessed as decrease in lymphocytes at 195 to 390 mg/kg, po administered via gavage for 30 days by blood routine test; format: organism-based; details: in vivo, 720 h, dose 195-390 mg/kg, time 30 day
CWR22R [28] = assay: Antitumor activity against human 22Rv1 cells xenografted in male BALB/c nude mouse administered via gavage; format: functional, cell-based; details: dose 195-390 mg/kg
[29] = Toxicity in male BALB/c nude mouse xenografted with human 22Rv1 cells assessed as decrease in body weight at 195 to 390 mg/kg administered via gavage; format: organism-based; details: in vivo, po, dose 195-390 mg/kg
CWR22R [30] = assay: Antitumor activity against human 22Rv1 cells xenografted in male BALB/c nude mouse assessed as tumor growth inhibition at 100 mg/kg administered via gavage relative to control; format: functional; details: 22Rv1, po, read-out: TGI
CWR22R [31] = assay: Antitumor activity against human 22Rv1 cells xenografted in male BALB/c nude mouse assessed as tumor growth inhibition at 195 to 390 mg/kg administered via gavage relative to control; format: functional; details: dose 195-390 mg/kg
CWR22R [32] = assay: Antitumor activity against human 22Rv1 cells xenografted in male BALB/c nude mouse assessed as tumor growth inhibition at 25 mg/kg administered via gavage relative to control; format: functional; details: 22Rv1, po, read-out: TGI
CWR22R [33] = assay: Antitumor activity against human 22Rv1 cells xenografted in male BALB/c nude mouse assessed as tumor growth inhibition at 50 mg/kg administered via gavage relative to control; format: functional; details: 22Rv1, po, read-out: TGI
[34] = Toxicity in male BALB/c nude mouse xenografted with human 22Rv1 cells assessed as decrease in body weight at 25 to 100 mg/kg administered via gavage; format: organism-based; details: in vivo, po, dose 25-100 mg/kg
[35] = Toxicity in male BALB/c nude mouse xenografted with human 22Rv1 cells assessed as decrease in WBC at 25 to 100 mg/kg administered via gavage by routine blood test; format: organism-based; details: in vivo, po, dose 25-100 mg/kg
[36] = Toxicity in male BALB/c nude mouse xenografted with human 22Rv1 cells assessed as decrease in neutrophils at 25 to 100 mg/kg administered via gavage by routine blood test; format: organism-based; details: in vivo, po, dose 25-100 mg/kg
[37] = Toxicity in male BALB/c nude mouse xenografted with human 22Rv1 cells assessed as decrease in lymphocytes at 25 to 100 mg/kg administered via gavage by routine blood test; format: organism-based; details: in vivo, po, dose 25-100 mg/kg
[38] = Toxicity in male BALB/c nude mouse xenografted with human 22Rv1 cells assessed as decrease in RBC at 25 to 100 mg/kg administered via gavage by routine blood test; format: organism-based; details: in vivo, po, dose 25-100 mg/kg
[39] = Subacute toxicity in male ICR mouse assessed as decrease in body weight at 175 mg/kg, po administered via gavage for 30 days; format: organism-based; details: in vivo, 720 h, time 30 day
[40] = Subacute toxicity in male ICR mouse assessed as decrease in red blood cells at 175 mg/kg, po administered via gavage for 30 days by blood routine test; format: organism-based; details: in vivo, 720 h, time 30 day
[41] = Subacute toxicity in male ICR mouse assessed as decrease in hemoglobin at 175 mg/kg, po administered via gavage for 30 days by blood routine test; format: organism-based; details: in vivo, 720 h, time 30 day
[42] = Subacute toxicity in male ICR mouse assessed as decrease in hematocrit at 175 mg/kg, po administered via gavage for 30 days by blood routine test; format: organism-based; details: in vivo, 720 h, time 30 day
[43] = Subacute toxicity in male ICR mouse assessed as decrease in WBC at 175 mg/kg, po administered via gavage for 30 days by blood routine test; format: organism-based; details: in vivo, 720 h, time 30 day
[44] = Subacute toxicity in male ICR mouse assessed as decrease in neutrophils at 175 mg/kg, po administered via gavage for 30 days by blood routine test; format: organism-based; details: in vivo, 720 h, time 30 day
[45] = Subacute toxicity in male ICR mouse assessed as decrease in lymphocytes at 175 mg/kg, po administered via gavage for 30 days by blood routine test; format: organism-based; details: in vivo, 720 h, time 30 day
CWR22R [46] = assay: Antitumor activity against human 22Rv1 cells xenografted in male BALB/c nude mouse at 175 mg/kg administered via gavage; format: functional, organism-based
[47] = Toxicity in male BALB/c nude mouse xenografted with human 22Rv1 cells assessed as decrease in body weight at 175 mg/kg administered via gavage; format: organism-based; details: in vivo, po
CWR22R [48] = assay: Antitumor activity against human 22Rv1 cells xenografted in male BALB/c nude mouse assessed as tumor growth inhibition at 175 mg/kg administered via gavage relative to control; format: functional; details: 22Rv1, po, read-out: TGI

Row | IC50 (LNCaP) | IC50 [3] | Drug uptake [7] | Drug uptake [8] | half-life [9] | Tmax [10] | Cmax [11] | AUC(0-t) at 24 h [12] | AUC(0-inf) [13] | bioavailability [14] | half-life [15] | C0 at 24 h [16] | Vd [17] | clearance [18] | Structure (SMILES) | IC50 (CWR22R [1]) | CC50 (PC-3) | CC50 at 72 h [2] | Activity (CWR22R [4]) | Activity (CWR22R [5]) | Activity (CWR22R [6]) | also measured
1 | 80.6 µM | 0.001 µM | Active | Not_active | 61 min | 60 min | 7310 ng/mL | 27400 ng·h/mL | 27800 ng·h/mL | 18.6% | 21.7 min | 13500 ng/mL | 0.383 L/kg | 12.2 mL/min/kg | O=C(O)CC[C@H](NC(=O)N[C@@H](CCCCNC(=O)CCC(=O)NC1(C(=O)N2CCN(C(=O)c3cc(Cc4n[nH]c(=O)c5ccccc45)ccc3F)CC2)CC1)C(=O)O)C(=O)O | 84.5 µM | > 1000 µM | > 1000 µM | Dose-dependent-effect | Active; Similar To Olaparib-Treated Group | Not active; Drug Mode Of Action Appears To Be Via Binding To Psma Receptor | AUC(0-t) at 24 h [19]: 7310 ng·h/mL; AUC(0-inf) [20]: 7460 ng·h/mL; Activity [21]: Non-toxic; Activity [22]: Non-toxic; Activity [23]: Non-toxic; Activity [24]: Non-toxic; Activity [25]: Non-toxic; Activity [26]: Non-toxic; Activity [27]: Non-toxic; Activity (CWR22R [28]): Dose-dependent-effect; Activity [29]: Non-toxic; inhibition in vivo at 100 mg/kg (CWR22R [30]): 70%; TGI (CWR22R [31]): 73%; inhibition in vivo at 25 mg/kg (CWR22R [32]): 52%; inhibition in vivo at 50 mg/kg (CWR22R [33]): 65%; Activity [34]: Non-toxic; Activity [35]: Non-toxic; Activity [36]: Non-toxic; Activity [37]: Non-toxic; Activity [38]: Non-toxic
2 | 93.9 µM | 0.0019 µM | Active | Not_active | 54.8 min | 60 min | 5260 ng/mL | 16300 ng·h/mL | 16500 ng·h/mL | 11% | 22.7 min | 12800 ng/mL | 0.391 L/kg | 12 mL/min/kg | O=C(O)CC[C@H](NC(=O)N[C@@H](CCCCNC(=O)CCC(=O)N1CCN(C(=O)c2cc(Cc3n[nH]c(=O)c4ccccc34)ccc2F)CC1)C(=O)O)C(=O)O | 133 µM | > 1000 µM | > 1000 µM | Dose-dependent-effect | Active; Similar To Olaparib-Treated Group | Not active; Drug Mode Of Action Appears To Be Via Binding To Psma Receptor | AUC(0-t) at 24 h [19]: 7300 ng·h/mL; AUC(0-inf) [20]: 7460 ng·h/mL; Activity [39]: Non-toxic; Activity [40]: Non-toxic; Activity [41]: Non-toxic; Activity [42]: Non-toxic; Activity [43]: Non-toxic; Activity [44]: Non-toxic; Activity [45]: Non-toxic; Activity (CWR22R [46]): Active; Activity [47]: Non-toxic; inhibition in vivo at 175 mg/kg (CWR22R [48]): 69%

Reference: ChEMBL document CHEMBL6092215, “A Prostate-Specific Membrane Antigen-Targeting Small Molecule-Drug Conjugate Strategy to Overcome the Hematological Toxicity of Olaparib” (J Med Chem, 2024)
